According to publication PMC9234589 (Heliyon, 2022):
“And” between values parts separate entries of the source, which are not always exact repeats. Equal entries are not always repeated.

What was measured:
[1] = test system: Drosophila melanogaster standard cross (ST), marker-heterozygous flies (mwh +/+ flr3); assay: Drosophila wing spot test; assay type: in vivo
human lymphocytes = conditions: cited from earlier work
[2] = test system: Drosophila melanogaster high bioactivation cross (HB), marker-heterozygous flies (mwh +/+ flr3); assay: Drosophila wing spot test; assay type: in vivo
C. elegans = conditions: NIC 100 μM; cited from earlier work
[3] = test system: A549 human adenocarcinoma cells; conditions: cited from earlier work
[4] = NIC 0.456 mM + RES 0.0004 mM vs NIC 0.456 mM
[5] = NIC 0.456 mM + RES 0.0004 mM vs RES 0.0004 mM
[6] = NIC 0.456 mM + RES 0.011 mM vs RES 0.011 mM
[7] = NIC 11.4 mM + RES 0.0004 mM vs RES 0.0004 mM
[8] = NIC […] + RES 0.0004 mM vs NIC […]
[9] = NIC […] + RES 0.0004 mM vs RES 0.0004 mM
[10] = ST cross, URE 20 mM positive control, vs water
[11] = HB cross, URE 20 mM positive control, vs water

SMILES: CN1CCC[C@H]1c1cccnc1 [NIC, nicotine]
- Mean mwh clone size class ([1]; NIC 0.050 mM + RES 0.011 mM): 1.34
- Number of surviving flies ([1]; ST cross, NIC 11.4 mM): decreased
- Genotoxicity (in words) ([1]; ST cross, NIC […] and 11.4 mM, increased small and total spots): genotoxic
- Concentrations at which genotoxic in in vitro assays (human lymphocytes): > 500 nM
- Lethality ([2]; HB cross, NIC 11.4 mM): lethal
- Clone formation observed ([2]; NIC 0.456 mM): 0.95 per 105 per cell Cells division
- Large single spots (>2 cells) per fly (number of spots) ([2]; NIC 0.456 mM): 0.07 (007)
- Mean mwh clone size class ([2]; NIC 0.456 mM): 1.64
- Small single spots (1-2 cells) per fly (number of spots) ([2]; NIC 0.456 mM): 0.38 (038)
- Total spots per fly (number of spots) ([2]; NIC 0.456 mM): 0.48(048)
- Twin spots per fly (number of spots) ([2]; NIC 0.456 mM): 0.03 (003)
- mwh clones ([2]; NIC 0.456 mM): 47
- Clone formation observed ([2]; NIC 0.456 mM + RES 0.0004 mM): 0.95 per 105 per cell Cells division and 0.90 per 105 per cell Cells division
- Large single spots (>2 cells) per fly (number of spots) ([2]; NIC 0.456 mM + RES 0.0004 mM): 0.11 (007)
- Mean mwh clone size class ([2]; NIC 0.456 mM + RES 0.0004 mM): 2.21
- Small single spots (1-2 cells) per fly (number of spots) ([2]; NIC 0.456 mM + RES 0.0004 mM): 0.36 (023)
- Total spots per fly (number of spots) ([2]; NIC 0.456 mM + RES 0.0004 mM): 0.47 (030)
- Twin spots per fly (number of spots) ([2]; NIC 0.456 mM + RES 0.0004 mM): 0.00 (000)
- mwh clones ([2]; NIC 0.456 mM + RES 0.0004 mM): 29
- Clone formation control connected [2, 4]: -0.05 per 105 per cell Cells division
- Large single spots statistical diagnosis [2, 4]: -
- Small single spots statistical diagnosis [2, 4]: -
- Total spots statistical diagnosis [2, 4]: -
- Twin spots statistical diagnosis [2, 4]: -
- Clone formation control connected [2, 5]: -0.25 per 105 per cell Cells division
- Large single spots statistical diagnosis [2, 5]: -
- Small single spots statistical diagnosis [2, 5]: -
- Total spots statistical diagnosis [2, 5]: -
- Twin spots statistical diagnosis [2, 5]: -
- Large single spots (>2 cells) per fly (number of spots) ([2]; NIC 0.456 mM + RES 0.011 mM): 0.10 (006)
- Small single spots (1-2 cells) per fly (number of spots) ([2]; NIC 0.456 mM + RES 0.011 mM): 0.37 (022)
- Clone formation control connected [2, 6]: 0.20 per 105 per cell Cells division
- Small single spots statistical diagnosis [2, 6]: -
- Clone formation observed ([2]; NIC 11.4 mM + RES 0.0004 mM): 0.80 per 105 per cell Cells division
- Large single spots (>2 cells) per fly (number of spots) ([2]; NIC 11.4 mM + RES 0.0004 mM): 0.00 (000)
- Mean mwh clone size class ([2]; NIC 11.4 mM + RES 0.0004 mM): 1.25
- Small single spots (1-2 cells) per fly (number of spots) ([2]; NIC 11.4 mM + RES 0.0004 mM): 0.40 (004)
- Total spots per fly (number of spots) ([2]; NIC 11.4 mM + RES 0.0004 mM): 0.40 (004)
- Twin spots per fly (number of spots) ([2]; NIC 11.4 mM + RES 0.0004 mM): 0.00 (000)
- mwh clones ([2]; NIC 11.4 mM + RES 0.0004 mM): 04
- Clone formation control connected [2, 7]: -0.40 per 105 per cell Cells division
- Large single spots statistical diagnosis [2, 7]: -
- Small single spots statistical diagnosis [2, 7]: -
- Total spots statistical diagnosis [2, 7]: -
- Twin spots statistical diagnosis [2, 7]: -
- Large single spots statistical diagnosis [2, 8]: -
- Twin spots statistical diagnosis [2, 8]: -
- Large single spots statistical diagnosis [2, 9]: -
- Small single spots statistical diagnosis [2, 9]: -
- Total spots statistical diagnosis [2, 9]: -
- Twin spots statistical diagnosis [2, 9]: -
- Genotoxicity, comet assay (in words) (C. elegans): genotoxic

SMILES: Oc1ccc(/C=C/c2cc(O)cc(O)c2)cc1 [RES, Resveratrol]
- Clone formation observed ([1]; RES 0.0004 mM): 1.15 per 105 per cell Cells division
- Large single spots (>2 cells) per fly (number of spots) ([1]; RES 0.0004 mM): 0.07 (004)
- Mean mwh clone size class ([1]; RES 0.0004 mM): 1.64
- Small single spots (1-2 cells) per fly (number of spots) ([1]; RES 0.0004 mM): 0.53 (031)
- Total spots per fly (number of spots) ([1]; RES 0.0004 mM): 0.60 (035)
- Twin spots per fly (number of spots) ([1]; RES 0.0004 mM): 0.00 (0)
- mwh clones ([1]; RES 0.0004 mM): 33
- Clone formation observed ([1]; RES 0.011 mM): 1.15 per 105 per cell Cells division and 1.35 per 105 per cell Cells division
- Large single spots (>2 cells) per fly (number of spots) ([1]; RES 0.011 mM): 0.03 (002) and 0.05 (005)
- Mean mwh clone size class ([1]; RES 0.011 mM): 1.84 and 1.58
- Small single spots (1-2 cells) per fly (number of spots) ([1]; RES 0.011 mM): 0.47 (027) and 0.58 (057)
- Total spots per fly (number of spots) ([1]; RES 0.011 mM): 0.57 (033) and 0.67 (066)
- Twin spots per fly (number of spots) ([1]; RES 0.011 mM): 0.07 (004) and 0.04 (004)
- Clone formation observed ([2]; RES 0.0004 mM): 1.20 per 105 per cell Cells division
- Large single spots (>2 cells) per fly (number of spots) ([2]; RES 0.0004 mM): 0.06 (005)
- Mean mwh clone size class ([2]; RES 0.0004 mM): 1.84
- Small single spots (1-2 cells) per fly (number of spots) ([2]; RES 0.0004 mM): 0.52 (045)
- Total spots per fly (number of spots) ([2]; RES 0.0004 mM): 0.59 (051)
- Twin spots per fly (number of spots) ([2]; RES 0.0004 mM): 0.01 (001)
- mwh clones ([2]; RES 0.0004 mM): 51
- Mean mwh clone size class ([2]; RES 0.011 mM): 1.43 and 1.56
- Twin spots per fly (number of spots) ([2]; RES 0.011 mM): 0.02 (001)
- Effect on cell survival (in words) ([3]; RES 0.02 mM): inhibited cell survival
- Effect on cell proliferation and viability (in words) ([3]; RES 0.001 and 0.005 mM): promoted cell proliferation and viability

SMILES: CCOC(N)=O [URE, ethyl carbamate]
- Clone formation per 105 cells per cell division, observed ([1]; ST cross, URE 20 mM): 2.80
- Mean mvh clone size class ([1]; ST cross, URE 20 mM): 1.45
- mwh clones ([1]; ST cross, URE 20 mM): 38
- Small single spots (1-2 cells), Spots per Fly (Number of Spots) [1, 10]: 1.21 (34) Spots per Fly
- Small single spots (1-2 cells), Statistical Diagnosis [1, 10]: +
- Total spots statistical diagnosis [1, 10]: +
- Total spots, Spots per Fly (Number of Spots) [1, 10]: 1.36 (38) Spots per Fly
- Twin spots statistical diagnosis [1, 10]: -
- Twin spots, Spots per Fly (Number of Spots) [1, 10]: 0.04 (1) Spots per Fly
- large single spots (>2 cells), Spots per Fly (Number of Spots) [1, 10]: 0.11 (03) Spots per Fly
- large single spots (>2 cells), Statistical Diagnosis [1, 10]: -
- Clone formation per 105 cells per cell division, control connected ([1]; ST cross, URE 20 mM, control water): 1.65
- Clone formation per 105 cells per cell division, observed ([2]; HB cross, URE 20 mM): 6.35
- Mean mvh clone size class ([2]; HB cross, URE 20 mM): 1.82
- mwh clones ([2]; HB cross, URE 20 mM): 71
- Small single spots (1-2 cells), Spots per Fly (Number of Spots) [2, 11]: 2.52 (58) Spots per Fly
- Small single spots (1-2 cells), Statistical Diagnosis [2, 11]: +
- Total spots statistical diagnosis [2, 11]: +
- Total spots, Spots per Fly (Number of Spots) [2, 11]: 3.09 (71) Spots per Fly
- Twin spots statistical diagnosis [2, 11]: +
- Twin spots, Spots per Fly (Number of Spots) [2, 11]: 0.17 (4) Spots per Fly
- large single spots (>2 cells), Spots per Fly (Number of Spots) [2, 11]: 0.39 (09) Spots per Fly
- large single spots (>2 cells), Statistical Diagnosis [2, 11]: +
- Clone formation per 105 cells per cell division, control connected ([2]; HB cross, URE 20 mM, control water): 4.85
